Assay results: US20100035866A1, “NOVEL SUBSTITUTED-1, 1-DIOXO-BENZO[1,2,4]THIADIAZIN-3ONES, PREPARATION METHOD THEREOF, AND PHARMACEUTICAL COMPOSITION CONTAINING THE SAME” (KOREA RESEARCH INSTITUTE OF CHEMICAL TECHNOLOGY, priority 2006, published 2010)

Legend:
5-HT1a = molecular target: T1, 5-HT1a (Homo sapiens, UniProt P08908); assay: Radioligand binding, 5-HT receptor family: 5-HT1a ([3H]8-OH-DPAT); conditions: CHO-K1 human recombinant receptor, [3H]8-OH-DPAT 0.5 nM; read-out: Binding affinity, IC50 (nM), 5-HT1a
T1 construct: purchased Euroscreen/BioSignal Packard Inc
T1 sequence (P08908 1-422): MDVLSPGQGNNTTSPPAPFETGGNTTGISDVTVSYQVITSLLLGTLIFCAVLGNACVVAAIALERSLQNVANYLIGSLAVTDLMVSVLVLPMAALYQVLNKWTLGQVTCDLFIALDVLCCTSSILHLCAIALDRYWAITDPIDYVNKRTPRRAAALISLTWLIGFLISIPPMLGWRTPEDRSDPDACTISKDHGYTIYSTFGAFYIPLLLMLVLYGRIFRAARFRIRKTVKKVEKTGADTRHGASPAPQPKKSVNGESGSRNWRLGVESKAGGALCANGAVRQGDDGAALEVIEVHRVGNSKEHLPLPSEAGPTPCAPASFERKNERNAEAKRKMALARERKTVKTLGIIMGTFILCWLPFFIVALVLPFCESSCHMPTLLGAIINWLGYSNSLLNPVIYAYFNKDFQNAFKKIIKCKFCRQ

5-HT2a = molecular target: T2, 5-HT2a (Homo sapiens, UniProt P28223); assay: Radioligand binding, 5-HT receptor family: 5-HT2a ([3H]Ketanserin); conditions: CHO-K1 human recombinant receptor, [3H]Ketanserin 1 nM; read-out: Binding affinity, IC50 (nM), 5-HT2a
T2 construct: purchased Euroscreen/BioSignal Packard Inc

5-HT2c = molecular target: T3, 5-HT2c (Homo sapiens, UniProt P28335); assay: Radioligand binding, 5-HT receptor family: 5-HT2c ([3H]Mesulergine); conditions: CHO-K1 human recombinant receptor, [3H]Mesulergine 1 nM; read-out: Binding affinity, IC50 (nM), 5-HT2c
T3 construct: purchased Euroscreen/BioSignal Packard Inc
T3 sequence (P28335 33-458): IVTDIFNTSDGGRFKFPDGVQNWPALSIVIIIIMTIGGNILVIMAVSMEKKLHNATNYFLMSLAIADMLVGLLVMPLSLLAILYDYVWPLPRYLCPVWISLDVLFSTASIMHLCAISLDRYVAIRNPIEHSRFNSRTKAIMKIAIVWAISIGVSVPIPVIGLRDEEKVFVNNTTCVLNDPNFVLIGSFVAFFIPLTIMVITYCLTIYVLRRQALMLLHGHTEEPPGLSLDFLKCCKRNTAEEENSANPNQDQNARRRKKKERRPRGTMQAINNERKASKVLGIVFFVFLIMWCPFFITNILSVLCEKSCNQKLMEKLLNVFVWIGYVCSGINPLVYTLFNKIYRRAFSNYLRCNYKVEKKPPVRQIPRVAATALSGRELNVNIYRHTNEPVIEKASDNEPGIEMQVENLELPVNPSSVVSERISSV

5-HT7 = molecular target: T4, 5-HT7 (Homo sapiens, UniProt P34969); assay: Radioligand binding, 5-HT receptor family: 5-HT7 ([3H]LSD); conditions: CHO-K1 human recombinant receptor, [3H]LSD 3 nM; read-out: Binding affinity, IC50 (nM), 5-HT7
T4 construct: purchased Euroscreen/BioSignal Packard Inc
Procedure: Radioligand bindings were performed according to the test method provided by the supplier of receptor membrane (Euroscreen/BioSignal Packard Inc.). The detailed assay conditions and the results were shown in the following Table 3 and Table 4, respectively.

hD2L receptor = molecular target: T5, hD2L receptor (Homo sapiens, UniProt P14416); assay: Dopamine receptor family binding: D2 ([3H]spiperone); conditions: [3H]spiperone 1 nM; read-out: Binding affinity, IC50 (nM), D2
T5 construct: purchased BioSignal Packard Inc., Montreal, Canada
Procedure: (§1) 2-2: Binding Assays of Dopamine Receptor Family
(§2) The radioligands used were [^3H]spiperone (for hD2L and hD3 receptors, 1 nM) and [^3H] YM-09151-2 (for hD4.2 receptor, 0.06 nM). Radioligand bindings were performed by the protocols provided by the supplier of receptor membranes (BioSignal Packard Inc., Montreal, Canada). Briefly, the buffer used in D2 or D3 receptor binding assay was 50 mM Tris-HCl (pH 7.4), 10 mM MgCl2, 1 mM EDTA, or 50 mM Tris-HCl (pH 7.4), 5 mM MgCl2 5 mM EDTA, 5 mM KCl, 1.5 mM CaCl2, 120 mM NaCl, respectively. In [^3H] YM-09151-2 receptor binding assays, the buffer containing 50 mM Tris-HCl (pH 7.4), 5 mM MgCl2, 5 mM EDTA, 5 mM KCl and 1.5 mM CaCl2 was used. […] Competition binding studies were carried out with 7-8 concentrations of the test compound run in duplicate tubes, and isotherms from three assays were calculated by computerized nonlinear regression analysis (GraphPad Prism Program, San Diego, […]) to yield median inhibitory concentration (IC50) values.

hD3 receptor = molecular target: T6, hD3 receptor (Homo sapiens, UniProt P35462); assay: Dopamine receptor family binding: D3 ([3H]spiperone); conditions: [3H]spiperone 1 nM; read-out: Binding affinity, IC50 (nM), D3
T6 construct: purchased BioSignal Packard Inc., Montreal, Canada

hD4.2 receptor = molecular target: T7, hD4.2 receptor (Homo sapiens, UniProt P21917, DEL265-296); assay: Dopamine receptor family binding: D4 ([3H]YM-09151-2); conditions: [3H]YM-09151-2 0.06 nM; read-out: Binding affinity, IC50 (nM), D4
T7 construct: purchased BioSignal Packard Inc., Montreal, Canada
T7 sequence (P21917 with tags, fused parts or gaps DEL265-296): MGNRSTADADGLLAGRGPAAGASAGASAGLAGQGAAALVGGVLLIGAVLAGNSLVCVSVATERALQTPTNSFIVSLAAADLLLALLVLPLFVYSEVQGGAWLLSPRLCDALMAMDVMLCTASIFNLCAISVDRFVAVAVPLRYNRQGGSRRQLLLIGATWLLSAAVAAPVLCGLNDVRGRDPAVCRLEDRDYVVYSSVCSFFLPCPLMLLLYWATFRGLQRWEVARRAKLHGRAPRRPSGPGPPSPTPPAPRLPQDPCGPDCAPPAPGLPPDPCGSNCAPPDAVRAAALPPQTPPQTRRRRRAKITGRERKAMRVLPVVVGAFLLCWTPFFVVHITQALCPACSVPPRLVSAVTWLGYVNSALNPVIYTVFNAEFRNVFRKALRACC
Procedure: as §1, §2

[1] = molecular target: Human serotonin 5-HT6 receptor (Homo sapiens, UniProt P50406); assay: [3H]LSD binding assay on cloned 5-HT6 receptor; conditions: IC50 (nM)
D1 = D1 (Homo sapiens, UniProt P21728); assay: Dopamine receptor family binding: D1; conditions: read-out: Binding affinity, IC50 (nM), D1
[2] = Binding affinity, 5-HT6, Table 4
[3] = binding affinity to the 5-HT6 receptor, Table 2, 1.87 nM [3H]LSD, cloned human receptor membranes from Sf21 cells, 37° C. 60 min

T4 sequence (P34969 whole entry): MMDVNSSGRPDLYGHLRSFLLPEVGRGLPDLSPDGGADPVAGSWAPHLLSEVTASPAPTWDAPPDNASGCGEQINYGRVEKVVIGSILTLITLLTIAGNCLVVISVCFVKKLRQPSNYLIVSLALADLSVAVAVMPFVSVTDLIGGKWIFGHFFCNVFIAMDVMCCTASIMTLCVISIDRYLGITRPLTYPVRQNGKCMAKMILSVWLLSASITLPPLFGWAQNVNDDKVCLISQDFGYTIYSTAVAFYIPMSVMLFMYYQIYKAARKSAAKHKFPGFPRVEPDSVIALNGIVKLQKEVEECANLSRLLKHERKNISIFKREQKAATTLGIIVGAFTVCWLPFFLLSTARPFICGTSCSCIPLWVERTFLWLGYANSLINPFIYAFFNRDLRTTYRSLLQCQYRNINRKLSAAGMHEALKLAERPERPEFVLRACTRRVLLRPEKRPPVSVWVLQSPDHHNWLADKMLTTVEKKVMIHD
T2 sequence (P28223 whole entry): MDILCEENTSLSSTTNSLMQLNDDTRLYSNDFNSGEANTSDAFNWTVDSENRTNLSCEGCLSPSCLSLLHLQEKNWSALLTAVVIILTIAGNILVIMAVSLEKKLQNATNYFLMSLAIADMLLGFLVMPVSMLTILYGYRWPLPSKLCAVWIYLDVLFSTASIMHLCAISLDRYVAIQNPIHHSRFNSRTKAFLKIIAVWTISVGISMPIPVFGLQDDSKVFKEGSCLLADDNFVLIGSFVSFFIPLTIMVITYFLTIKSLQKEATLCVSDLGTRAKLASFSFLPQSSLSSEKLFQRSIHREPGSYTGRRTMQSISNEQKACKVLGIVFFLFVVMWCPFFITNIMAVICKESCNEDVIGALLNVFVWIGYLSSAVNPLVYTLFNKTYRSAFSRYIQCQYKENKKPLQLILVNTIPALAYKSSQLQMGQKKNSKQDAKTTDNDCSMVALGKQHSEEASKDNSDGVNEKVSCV
T5 sequence (P14416 whole entry): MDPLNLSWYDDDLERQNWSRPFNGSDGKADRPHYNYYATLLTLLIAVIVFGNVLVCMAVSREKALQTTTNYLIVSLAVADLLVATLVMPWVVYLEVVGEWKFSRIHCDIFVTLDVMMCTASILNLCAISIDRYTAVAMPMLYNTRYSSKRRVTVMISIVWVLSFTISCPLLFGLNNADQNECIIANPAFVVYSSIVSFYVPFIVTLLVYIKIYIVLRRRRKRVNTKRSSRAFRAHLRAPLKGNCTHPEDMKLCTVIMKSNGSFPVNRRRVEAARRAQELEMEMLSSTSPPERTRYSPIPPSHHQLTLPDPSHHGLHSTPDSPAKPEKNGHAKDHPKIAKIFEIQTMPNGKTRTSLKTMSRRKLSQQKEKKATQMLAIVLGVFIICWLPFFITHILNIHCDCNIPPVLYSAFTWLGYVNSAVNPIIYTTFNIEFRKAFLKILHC
Chain of Human serotonin 5-HT6 receptor (P50406 whole entry): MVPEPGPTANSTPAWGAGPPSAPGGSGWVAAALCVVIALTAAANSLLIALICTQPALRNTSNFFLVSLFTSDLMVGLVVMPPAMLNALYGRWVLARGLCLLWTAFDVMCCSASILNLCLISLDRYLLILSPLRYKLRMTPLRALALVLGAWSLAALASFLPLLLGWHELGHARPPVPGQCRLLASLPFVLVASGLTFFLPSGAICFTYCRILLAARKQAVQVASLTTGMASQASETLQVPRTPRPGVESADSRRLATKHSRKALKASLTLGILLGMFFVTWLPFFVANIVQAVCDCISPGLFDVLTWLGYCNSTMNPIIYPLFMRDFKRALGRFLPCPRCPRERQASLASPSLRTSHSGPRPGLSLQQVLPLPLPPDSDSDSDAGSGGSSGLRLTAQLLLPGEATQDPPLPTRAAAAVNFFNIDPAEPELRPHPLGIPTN
T6 sequence (P35462 whole entry): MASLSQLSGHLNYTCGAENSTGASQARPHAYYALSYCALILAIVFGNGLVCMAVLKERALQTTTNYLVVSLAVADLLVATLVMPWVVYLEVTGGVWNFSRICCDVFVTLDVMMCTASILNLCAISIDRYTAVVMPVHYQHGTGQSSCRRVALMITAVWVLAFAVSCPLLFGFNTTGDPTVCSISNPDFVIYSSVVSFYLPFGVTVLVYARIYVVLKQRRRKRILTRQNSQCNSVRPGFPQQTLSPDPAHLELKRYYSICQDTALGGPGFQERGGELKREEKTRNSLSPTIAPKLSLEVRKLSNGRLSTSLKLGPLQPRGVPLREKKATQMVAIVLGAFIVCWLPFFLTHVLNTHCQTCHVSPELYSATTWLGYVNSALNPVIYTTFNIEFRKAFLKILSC
Chain of D1 (P21728 whole entry): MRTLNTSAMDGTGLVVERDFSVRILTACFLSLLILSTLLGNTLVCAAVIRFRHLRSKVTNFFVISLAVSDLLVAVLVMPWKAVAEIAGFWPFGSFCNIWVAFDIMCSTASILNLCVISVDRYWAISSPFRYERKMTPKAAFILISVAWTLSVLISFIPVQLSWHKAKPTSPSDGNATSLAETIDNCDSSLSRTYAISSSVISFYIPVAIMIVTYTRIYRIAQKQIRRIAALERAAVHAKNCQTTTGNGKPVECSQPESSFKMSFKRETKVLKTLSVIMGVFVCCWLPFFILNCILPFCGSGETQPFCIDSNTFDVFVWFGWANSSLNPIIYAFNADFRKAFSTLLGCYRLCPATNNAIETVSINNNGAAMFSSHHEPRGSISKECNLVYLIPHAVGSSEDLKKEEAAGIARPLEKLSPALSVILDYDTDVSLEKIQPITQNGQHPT

## CN1CCN(c2cc(Cl)cc3c2S(=O)(=O)N(Cc2ccccc2F)C(=O)N3Cc2ccccc2)CC1 [Example 2, 4-Benzyl-6-chloro-2-(2-fluoro-benzyl)-8-(4-methyl-piperazin-1-yl)-1,1-dioxo-1,4-dihydro-2H-1λ^6-benzo[1,2,4]thiadiazin-3-one]
5-HT1a
  IC50: 2300 nM
5-HT2a
  IC50: 335 nM
5-HT2c
  IC50: 578 nM
5-HT7
  IC50: > 10000 nM
hD2L receptor
  IC50: > 10000 nM
hD3 receptor
  IC50: 390 nM
hD4.2 receptor
  IC50: > 10000 nM
other
  melting point: 118 to 120 °C
[1]; [2]
  IC50: 1.9 nM
[1]; [3]
  IC50: 1.9 nM

## CN1CCN(c2cc(Cl)cc3c2S(=O)(=O)N(Cc2cccc(F)c2)C(=O)N3Cc2ccccc2)CC1 [Example 3, 4-Benzyl-6-chloro-2-(3-fluoro-benzyl)-8-(4-methyl-piperazin-1-yl)-1,1-dioxo-1,4-dihydro-2H-1λ^6-benzo[1,2,4]thiadiazin-3-one]
5-HT1a
  IC50: 5980 nM
5-HT2a
  IC50: 846 nM
5-HT2c
  IC50: 2190 nM
5-HT7
  IC50: > 10000 nM
hD2L receptor
  IC50: > 10000 nM
hD3 receptor
  IC50: 537 nM
hD4.2 receptor
  IC50: > 10000 nM
other
  melting point: 85 to 87 °C
[1]; [2]
  IC50: 0.7 nM
[1]; [3]
  IC50: 0.7 nM

## CN1CCN(c2cc(Cl)cc3c2S(=O)(=O)N(Cc2ccccc2Cl)C(=O)N3Cc2ccccc2)CC1 [Example 5, 4-Benzyl-6-chloro-2-(2-chloro-benzyl)-8-(4-methyl-piperazin-1-yl)-1,1-dioxo-1,4-dihydro-2H-1λ^6-benzo[1,2,4]thiadiazin-3-one]
5-HT1a
  IC50: 3010 nM
5-HT2a
  IC50: 396 nM
5-HT2c
  IC50: 240 nM
5-HT7
  IC50: > 10000 nM
hD2L receptor
  IC50: 5090 nM
hD3 receptor
  IC50: 93 nM
hD4.2 receptor
  IC50: > 10000 nM
other
  melting point: 132 to 133 °C
[1]; [2]
  IC50: 1.3 nM
[1]; [3]
  IC50: 1.3 nM

## CN1CCN(c2cc(Cl)cc3c2S(=O)(=O)N(Cc2ccc(Cl)cc2)C(=O)N3Cc2ccccc2)CC1 [Example 7, 4-Benzyl-6-chloro-2-(4-chloro-benzyl)-8-(4-methyl-piperazin-1-yl)-1,1-dioxo-1,4-dihydro-2H-1λ^6-benzo[1,2,4]thiadiazin-3-one]
5-HT1a
  IC50: 3910 nM
5-HT2a
  IC50: 488 nM
5-HT2c
  IC50: 1540 nM
5-HT7
  IC50: > 10000 nM
hD2L receptor
  IC50: > 10000 nM
hD3 receptor
  IC50: 555 nM
hD4.2 receptor
  IC50: > 10000 nM
other
  melting point: 99 to 100 °C
[1]; [2]
  IC50: 2.3 nM
[1]; [3]
  IC50: 2.3 nM

## COc1ccc(CN2C(=O)N(Cc3ccccc3)c3cc(Cl)cc(N4CCN(C)CC4)c3S2(=O)=O)cc1 [Example 18, 4-Benzyl-6-chloro-2-(4-methoxy-benzyl)-8-(4-methyl-piperazin-1-yl)-1,1-dioxo-1,4-dihydro-2H-1λ^6-benzo[1,2,4]thiadiazin-3-one]
5-HT1a
  IC50: 3420 nM
5-HT2a
  IC50: 563 nM
5-HT2c
  IC50: 990 nM
5-HT7
  IC50: > 10000 nM
D1
  IC50: > 10000 nM
hD2L receptor
  IC50: 6580 nM
hD3 receptor
  IC50: 1220 nM
hD4.2 receptor
  IC50: > 10000 nM
[1]; [2]
  IC50: 3.6 nM
[1]; [3]
  IC50: 3.6 nM

## C[C@H](c1ccccc1)N1C(=O)N(Cc2ccccc2)c2cc(Cl)cc(N3CCN(C)CC3)c2S1(=O)=O [Example 25, 4-Benzyl-6-chloro-8-(4-methyl-piperazin-1-yl)-1,1-dioxo-2-[(R)-1-phenyl-ethyl]-1,4-dihydro-2H-1λ^6-benzo[1,2,4]thiadiazin-3-one]
5-HT1a
  IC50: > 10000 nM
5-HT2a
  IC50: 350 nM
5-HT2c
  IC50: 691 nM
5-HT7
  IC50: 8560 nM
D1
  IC50: 963 nM
hD2L receptor
  IC50: 1920 nM
hD3 receptor
  IC50: 265 nM
hD4.2 receptor
  IC50: > 10000 nM
[1]; [2]
  IC50: 1.1 nM
[1]; [3]
  IC50: 1.1 nM

## CCN1C(=O)N(Cc2ccccc2)c2cc(Cl)cc(N3CCN(C)CC3)c2S1(=O)=O [Example 33, 4-Benzyl-6-chloro-2-ethyl-8-(4-methyl-piperazin-1-yl)-1,1-dioxo-1,4-dihydro-2H-1λ^6-benzo[1,2,4]thiadiazin-3-one]
5-HT1a
  IC50: 2620 nM
5-HT2a
  IC50: 119 nM
5-HT2c
  IC50: 1240 nM
5-HT7
  IC50: > 10000 nM
hD2L receptor
  IC50: > 10000 nM
hD3 receptor
  IC50: 3170 nM
hD4.2 receptor
  IC50: > 10000 nM
other
  melting point: 167 to 169 °C
[1]; [2]
  IC50: 0.3 nM
[1]; [3]
  IC50: 0.3 nM

## CCCN1C(=O)N(Cc2ccccc2)c2cc(Cl)cc(N3CCN(C)CC3)c2S1(=O)=O [Example 34, 4-Benzyl-6-chloro-8-(4-methyl-piperazin-1-yl)-2-propyl-1,1-dioxo-1,4-dihydro-2H-1λ^6-benzo[1,2,4]thiadiazin-3-one]
5-HT1a
  IC50: 2390 nM
5-HT2a
  IC50: 436 nM
5-HT2c
  IC50: 203 nM
5-HT7
  IC50: > 10000 nM
hD2L receptor
  IC50: > 10000 nM
hD3 receptor
  IC50: 1860 nM
hD4.2 receptor
  IC50: > 10000 nM
other
  melting point: 91 to 93 °C
[1]; [2]
  IC50: 0.4 nM
[1]; [3]
  IC50: 0.4 nM

## CCCCCCCCN1C(=O)N(Cc2ccccc2)c2cc(Cl)cc(N3CCN(C)CC3)c2S1(=O)=O [Example 39, 4-Benzyl-6-chloro-8-(4-methyl-piperazin-1-yl)-2-octyl-1,1-dioxo-1,4-dihydro-2H-1λ^6-benzo[1,2,4]thiadiazin-3-one]
5-HT1a
  IC50: 894 nM
5-HT2a
  IC50: 1320 nM
5-HT2c
  IC50: 1050 nM
5-HT7
  IC50: 3170 nM
hD2L receptor
  IC50: > 10000 nM
hD3 receptor
  IC50: 130 nM
hD4.2 receptor
  IC50: > 10000 nM
other
  melting point: 88 to 91 °C
[1]; [2]
  IC50: 1.8 nM
[1]; [3]
  IC50: 1.8 nM

## CN1CCN(c2cc(Cl)cc3c2S(=O)(=O)N(Cc2cccc4ccccc24)C(=O)N3Cc2ccccc2)CC1 [Example 41, 4-Benzyl-6-chloro-8-(4-methyl-piperazin-1-yl)-2-naphthalen-1-ylmethyl-1,1-dioxo-1,4-dihydro-2H-1λ^6-benzo[1,2,4]thiadiazin-3-one]
5-HT1a
  IC50: > 10000 nM
5-HT2a
  IC50: 365 nM
5-HT2c
  IC50: 257 nM
5-HT7
  IC50: > 10000 nM
hD2L receptor
  IC50: > 10000 nM
hD3 receptor
  IC50: 420 nM
hD4.2 receptor
  IC50: > 10000 nM
other
  melting point: 114 to 115 °C
[1]; [2]
  IC50: 0.8 nM
[1]; [3]
  IC50: 0.8 nM
